From ChEMBL document CHEMBL4825709 (J Med Chem, 2021)
In brackets after ≈: the same amount, converted by molar mass.

What was measured:
[1] = physchem
[2] = physchem; conditions: buffer, pH 7.4, logD
[3] = physchem; conditions: FaSSIF, pH 6.5

CNC(=O)C(C(C)C)N(CC(c1ccccc1)c1ccccc1)C(=O)c1cc(C)c(=O)n(C)c1 (stereo not drawn)
solubility [1]: 105 µg/mL (≈ 228 µM)
logD [2]: 4.9
solubility at 16 h [3]: 60 µg/mL (≈ 131 µM)

CNC(=O)CN(CC(CC1CCOCC1)c1ccccc1)C(=O)c1cc(C)c(=O)n(C)c1 (stereo not drawn)
logD [2]: 2.4

CNC(=O)CN(CC(c1ccccc1)n1ccnc1)C(=O)c1cc(C)c(=O)n(C)c1 (stereo not drawn)
logD [2]: 1.45

CNC(=O)C(C)N(CC(c1ccccc1)c1cccnc1)C(=O)c1cc(C)c(=O)n(C)c1 (stereo not drawn)
logD [2]: 1.9

Cc1cc(C(=O)N(CC(c2ccccc2)c2ccccc2)C(C)C2CCCO2)cn(C)c1=O (stereo not drawn)
solubility [1]: 108 µg/mL (≈ 243 µM)
logD [2]: 5.1
solubility at 16 h [3]: 21 µg/mL (≈ 47.2 µM)

CCNC(=O)C(C)N(CC(c1ccccc1)c1ccccc1)C(=O)c1cc(C)c(=O)n(C)c1 (stereo not drawn)
logD [2]: 4.3

CCOC(CN(CC(=O)NC)C(=O)c1cc(C)c(=O)n(C)c1)c1ccccc1 (stereo not drawn)
logD [2]: 2.7

CNC(=O)C(C)N(CC(c1ccccc1)c1ccncc1)C(=O)c1cc(C)c(=O)n(C)c1 (stereo not drawn)
logD [2]: 1.7

CNC(=O)CN(CC(c1ccccc1)c1ccccc1)C(=O)c1cc(C)c(=O)n(C)c1
solubility [1]: 163 µg/mL (≈ 390 µM)
logD [2]: 3.4

CNC(=O)CN(CC(c1ccccc1)C(C)C)C(=O)c1cc(C)c(=O)n(C)c1 (stereo not drawn)
logD [2]: 3.3

CCC(C(=O)NC)N(CC(c1ccccc1)c1ccccc1)C(=O)c1cc(C)c(=O)n(C)c1 (stereo not drawn)
logD [2]: 4.3
solubility at 16 h [3]: 150 µg/mL (≈ 337 µM)

CNC(=O)C1(N(CC(c2ccccc2)c2ccccc2)C(=O)c2cc(C)c(=O)n(C)c2)CCCC1
logD [2]: 4.7
solubility at 16 h [3]: 132 µg/mL (≈ 280 µM)

CNC(=O)C(C)N(CC(O)(c1ccccc1)c1ccccc1)C(=O)c1cc(C)c(=O)n(C)c1 (stereo not drawn)
logD [2]: 2.9

CNC(=O)[C@H](C)N(CC(c1ccccc1)c1ccccc1)C(=O)c1cc(C)c(=O)n(C)c1
solubility [1]: > 163 µg/mL

CNC(=O)C(C)N(CC(c1ccccc1)c1ccccc1)C(=O)c1cc(OC)c(=O)n(C)c1 (stereo not drawn)
solubility [1]: 111 µg/mL (≈ 248 µM)
logD [2]: 3.3
solubility at 16 h [3]: 661 µg/mL (≈ 1480 µM)

CNC(=O)C(C)(C)N(CC(c1ccccc1)c1ccccc1)C(=O)c1cc(C)c(=O)n(C)c1
solubility [1]: > 242 µg/mL
logD [2]: 3.7

Cc1cc(C(=O)N(CC(N)=O)CC(c2ccccc2)c2ccccc2)cn(C)c1=O
solubility [1]: > 175 µg/mL
logD [2]: 2.9

Cc1cc(C(=O)N(CCN2CCOCC2)CC(c2ccccc2)c2ccccc2)cn(C)c1=O
solubility [1]: > 239 µg/mL
logD [2]: 4.1

CNC(=O)C(N(CC(c1ccccc1)c1ccccc1)C(=O)c1cc(C)c(=O)n(C)c1)C(C)(C)C (stereo not drawn)
solubility [1]: 93 µg/mL (≈ 196 µM)
logD [2]: 5.4
solubility at 16 h [3]: 2 µg/mL (≈ 4.22 µM)

Cc1cc(C(=O)N(CC(c2ccccc2)c2ccccc2)C(C)CN2CCOCC2)cn(C)c1=O (stereo not drawn)
solubility [1]: > 206 µg/mL
logD [2]: 5.4
solubility at 16 h [3]: 91 µg/mL (≈ 192 µM)

CNC(=O)[C@@H](C)N(CC(c1ccccc1)c1ccccc1)C(=O)c1cc(C)c(=O)n(C)c1
solubility [1]: > 211 µg/mL

CNC(=O)CN(CC(c1ccccc1)C1CCOCC1)C(=O)c1cc(C)c(=O)n(C)c1 (stereo not drawn)
logD [2]: 2.1

CNC(=O)C(C)N(CC(c1ccccc1)c1ccccc1)C(=O)c1cc(C)c(=O)n(C)c1 (stereo not drawn)
solubility [1]: 213 µg/mL (≈ 494 µM)
logD [2]: 3.7

CNC(=O)C(C1COC1)N(CC(c1ccccc1)c1ccccc1)C(=O)c1cc(C)c(=O)n(C)c1 (stereo not drawn)
solubility [1]: > 142 µg/mL
logD [2]: 3.6

CCNC(=O)C(C)N(CC(c1ccccc1)c1ccccc1)C(=O)C1CCC(=O)N(C)C1 (stereo not drawn)
logD [2]: 3.9
